Assay results from patent US20130143825A1, “COMPOUNDS FOR USE IN THE TREATMENT OF DISEASES BASED ON THE EXPRESSION OF TOXIC TRANSCRIPTS” (UNIVERSITAT DE VALENCIA, priority 2010, published 2013).
No end group written: not given here.

Experiments:
[1] = tested on: GMR-Gal4 UAS-CTG(480) flies; assay: Endogenous expression of p10-derived peptides (Gal4/UAS), rough eye phenotype; assay type: in vivo, Drosophila; conditions: for eye phenotype on co-expression with CTG(480): 25° C.; for phenotype of expression of peptide by itself: 25° C. and 29° C., without CTG(480); for offspring of crossing with GMR-Gal4 UAS-CTG(480)/CyO: 29° C.; for transgenic lines assayed that modified the phenotype of GMR-Gal4 UAS-CTG(480) flies: in vivo
Source text: Thus, three different transgenes were designed, with SEQ ID NO: 17-19 (p17-p19), which encoded different peptides, all based on sequence SEQ ID NO: 10 corresponding to p10 (FIG. 9), taking into consideration the codon usage bias in Drosophila (i.e. favouring the use of G, and in particular C, in the synonymous sites; Powell & Moriyama, 1997) and adding an initial Methionine, as well as three spacer Glycines, to sequence SEQ ID NO: 10. Moreover, upstream from the […] initiation codon, 21 nucleotides of the 5′UTR end of the act5C gene of Drosophila which included the Kozak sequence were added, in order to enhance the expression of the transgenes.
p17 contained the direct sequence of the peptide of SEQ ID NO: 10. As discussed above, the peptides in the hexapeptide chemical library are composed of D-amino acids. The D-forms (dextrogyre) of amino acids are stereoisomers of the L-forms (levogyres) and only L-amino acids are synthesised in the cells and incorporated into proteins. Consequently, if the arrangement of the lateral chains of p10 is important for the function thereof, the latter would be lost when p17 is synthesised by Drosophila from L-aa. For this reason, it was decided to generate construct p18, wherein the peptide sequence of SEQ ID NO: 10 was inverted, leading to a retro-inverse peptide (Chorev & Goodman, 1995; P. M. Fischer, 2003). At the time when these transgenes were generated, the smallest constructs described in the literature encoded peptides with more than 20 amino acids, which is more than twice the size of peptides p17 and p18 (which have only ten amino acids). For this reason, construct p19 was generated, which combined the constructs of peptides p17 and p18, leading to a peptide with 19 amino acids. The three constructs were microinjected in the precursors of the germinal line of Drosophila embryos, leading to 10 lines of transgenic flies for each transgene.
(§1) The transgenic flies obtained were crossed with the GMR-Gal4 UAS-CTG(480)/CyO and Mhc-Gal4 UAS-CTG(480)/TM6b recombinant fly lines generated during this invention, which directed the expression of the CTG repeats in the eye and the muscle, respectively. As in the case of the sev-Gal4 UAS-CTG(480)/+ flies, the adult GMR-Gal4 UAS-CTG(480)/UAS-GFP flies presented a strong rough eye phenotype. […] However, the opposite phenomenon occurred at 25° C. and at 29° C. […] Given that changes in temperature affect the expression of the CTG(480) transgenes and peptides p17-p19 in a different manner, since the latter are inserted in different regions of the genome, there may be a relation between the quantity of peptide and of repeats that must be reached, whereafter p10 becomes toxic.

[2] = tested on: Mhc-Gal4 UAS-CTG(480) flies; assay: Endogenous expression of p10-derived peptides in the IFMs; assay type: in vivo, Drosophila; conditions: Mhc-Gal4 line at 25° C., recently ecloded adults
Procedure: as §1
This confirms the effect of p10 on CTG(480). Once again, only those lines that carried the p18 and p19 transgenes modified the phenotype.

| Substance | rough eye phenotype on co-expression with CTG(480) ([1]; 19° C. and 21° C.) | length of the eye in the dorso-ventral axis vs control flies ([1]; 19° C. and 21° C., p-value <0.05) | eye phenotype on co-expression with CTG(480) [1] | phenotype of expression of peptide by itself [1] | offspring of crossing with GMR-Gal4 UAS-CTG(480)/CyO [1] | transgenic lines assayed that modified the phenotype of GMR-Gal4 UAS-CTG(480) flies [1] | histological defects of the IFMs on co-expression with CTG(480) [2] |
| --- | --- | --- | --- | --- | --- | --- | --- |
| p19: endogenously expressed peptide with 19 amino acids combining the constructs of p17 and p18 (MGGGPPYAWEGGGEWAYPP) | visibly less rough | significant increase in the size of the eye | enhanced the toxicity of the CTG repeats | did not cause any phenotype | did not produce offspring without the CyO balancer | one of the three lines | suppressed the histological defects of the IFMs |
| p18: endogenously expressed ten amino acid peptide with the sequence of p10 inverted (retro-inverse) (MGGGEWAYPP; not fully specified) | visibly less rough | – | enhanced the toxicity of the CTG repeats | did not cause any phenotype | did not produce offspring without the CyO balancer | all the lines | suppressed the histological defects of the IFMs |
